How the values were obtained:
[1] = target: T1, CAK complex (human Cdk7, human Cyclin H, MAT-1) (Homo sapiens, UniProt P50613); assay: in vitro time-resolved-fluorescence assay for the CAK kinase activity; assay type: biochemical; settings: compound 20 uM; read-out: CAK % inhib; 20 uM
T1 construct: made in house; host or cells: SF-900 insect cells co-infected with Flag-Cdk7 and Bab-Cyclin H baculoviruses
How it was run: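 Kinase activity of the human CAK complex (Flag-tagged Cdk7, Cyclin H, MAT-1), purified from co-infected SF-900 insect cells by Flag-M2 immunoaffinity, was measured by time-resolved fluorescence. In black glutathione-coated 96-well plates, 500 ng GST-CTD substrate with 22 uM ATP was mixed with compound in 30% DMSO/25 mM Hepes and 250 ng CAK. Plates were incubated 20 minutes at 30° C, then stopped with EDTA, bound overnight and washed. A Europium-labeled antibody detected serine-phosphorylated CTD.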

[2] = target: T2, Focal Adhesion Kinase (full-length Flag-tagged human FAK) (Homo sapiens, UniProt Q05397); assay: in vitro FAK ELISA kinase assay; assay type: biochemical; settings: compound 10 uM; ATP 2 uM; read-out: FAK % Inhib ave: 10 uM
T2 construct: a purified recombinant full-length Flag-tagged human FAK protein; Flag; made in house; host or cells: baculovirus infected insect cells
How it was run: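 Plate-coated GST fusion of the 73-residue region around Tyr397 phosphorylated by full-length Flag-tagged human FAK from baculovirus-infected insect cells, with 2 μM ATP in Mg/Mn HEPES pH 7.5, 1 h at 30 °C. Phosphotyrosine detected by HRP-anti-pTyr ELISA with TMB read-out. Compounds screened at 10 μM or titrated from 50 μM in half-log steps for IC50, BSA-substrate background subtracted.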

T1 sequence (P50613 with tags, fused parts or gaps): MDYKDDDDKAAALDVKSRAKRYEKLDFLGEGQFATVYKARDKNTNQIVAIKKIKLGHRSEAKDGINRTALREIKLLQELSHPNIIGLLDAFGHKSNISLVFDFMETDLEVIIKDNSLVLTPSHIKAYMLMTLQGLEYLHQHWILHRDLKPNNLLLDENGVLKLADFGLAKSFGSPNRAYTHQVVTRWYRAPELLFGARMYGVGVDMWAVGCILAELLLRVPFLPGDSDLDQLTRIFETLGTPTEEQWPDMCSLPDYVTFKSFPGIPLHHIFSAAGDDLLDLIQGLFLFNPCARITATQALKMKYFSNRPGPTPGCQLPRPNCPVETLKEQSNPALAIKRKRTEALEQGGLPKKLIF
T1 sequence (as listed by the source partner): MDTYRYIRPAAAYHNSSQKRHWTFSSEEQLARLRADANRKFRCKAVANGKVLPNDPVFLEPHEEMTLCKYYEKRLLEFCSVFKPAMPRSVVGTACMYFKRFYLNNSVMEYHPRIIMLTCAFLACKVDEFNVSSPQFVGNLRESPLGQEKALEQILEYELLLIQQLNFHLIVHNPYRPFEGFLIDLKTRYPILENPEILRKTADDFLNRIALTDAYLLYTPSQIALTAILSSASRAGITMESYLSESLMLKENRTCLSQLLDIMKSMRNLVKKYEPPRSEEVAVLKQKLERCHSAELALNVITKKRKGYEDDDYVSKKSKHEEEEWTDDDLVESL
T2 sequence (Q05397 whole entry): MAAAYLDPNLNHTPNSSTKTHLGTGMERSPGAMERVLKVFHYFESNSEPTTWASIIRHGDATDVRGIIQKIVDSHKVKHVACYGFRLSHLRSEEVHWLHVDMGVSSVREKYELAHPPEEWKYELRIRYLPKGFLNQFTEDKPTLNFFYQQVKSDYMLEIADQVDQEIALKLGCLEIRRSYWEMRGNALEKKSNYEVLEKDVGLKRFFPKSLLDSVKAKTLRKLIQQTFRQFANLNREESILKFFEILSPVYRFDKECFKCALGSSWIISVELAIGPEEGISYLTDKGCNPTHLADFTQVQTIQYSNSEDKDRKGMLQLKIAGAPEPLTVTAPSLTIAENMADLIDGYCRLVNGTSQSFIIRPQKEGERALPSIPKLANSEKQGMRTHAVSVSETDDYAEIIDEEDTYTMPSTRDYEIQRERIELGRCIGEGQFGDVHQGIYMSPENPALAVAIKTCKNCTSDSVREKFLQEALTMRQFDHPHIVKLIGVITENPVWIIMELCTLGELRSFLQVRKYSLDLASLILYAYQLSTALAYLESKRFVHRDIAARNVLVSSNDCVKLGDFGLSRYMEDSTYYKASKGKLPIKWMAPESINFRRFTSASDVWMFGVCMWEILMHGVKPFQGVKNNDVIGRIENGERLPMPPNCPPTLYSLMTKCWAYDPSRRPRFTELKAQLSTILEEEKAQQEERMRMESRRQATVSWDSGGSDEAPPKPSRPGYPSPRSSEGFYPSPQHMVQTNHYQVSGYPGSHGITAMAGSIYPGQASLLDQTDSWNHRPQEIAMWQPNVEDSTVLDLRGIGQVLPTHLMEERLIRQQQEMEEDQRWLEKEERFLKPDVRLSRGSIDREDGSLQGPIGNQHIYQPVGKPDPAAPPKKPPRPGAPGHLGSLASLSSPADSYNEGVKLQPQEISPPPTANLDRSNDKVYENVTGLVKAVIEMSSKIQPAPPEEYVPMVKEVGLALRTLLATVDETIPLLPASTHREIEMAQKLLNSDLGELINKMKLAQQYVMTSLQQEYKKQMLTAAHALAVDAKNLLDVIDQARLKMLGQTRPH

| SMILES | inhibition at 20 µM [1] | inhibition at 10 µM [2] |
| --- | --- | --- |
| CCN(CC)CCNC(=O)c1ccc(Nc2ncc3nnn(-c4cccc(-c5nnn[nH]5)c4)c3n2)cc1 [Compound 62, N-(2-Diethylamino-ethyl)-4-{3-[3-(1H-tetrazol-5-yl)-phenyl]-3H-[1,2,3]triazolo[4,5-d]pyrimidin-5-ylamino}-benzamide] | 45.3% | 66.7% |
| CCN(CC)CCNC(=O)c1ccc(Nc2ncc3nnn(-c4cc[nH]n4)c3n2)cc1 [Compound 66] | 68.1% | 87.2% |
| c1ccc(-c2cccc(Nc3ncc4nnn(-c5ccc(-c6csnn6)cc5)c4n3)c2)cc1 [Compound 38, Biphenyl-3-yl-[3-(4-[1,2,3]thiadiazol-4-yl-phenyl)-3H-[1,2,3]triazolo[4,5-d]pyrimidin-5-yl]-amine] | 27.2% | 3.4% |
| CCN(CC)CCNC(=O)c1ccc(Nc2ncc3nnn(-c4cccc(-c5cnco5)c4)c3n2)cc1 [Compound 84, N-(2-Diethylamino-ethyl)-4-[3-(3-oxazol-5-yl-phenyl)-3H-[1,2,3]triazolo[4,5-d]pyrimidin-5-ylamino]-benzamide] | -58.9% | 46.6% |
| CN(C)CC(O)COc1ccc(Nc2ncc3nnn(-c4ccc5c(c4)CCC5)c3n2)cc1 (stereo not shown) [Compound 1, 1-Dimethylamino-3-[4-(3-indan-5-yl-3H-[1,2,3]triazolo[4,5-d]pyrimidin-5-ylamino)-phenoxy]-propan-2-ol] | 102% | 93.6% |
| CCN(CC)CCCOc1ccc(Nc2ncc3nnn(-c4ccc5c(c4)CCC5)c3n2)cc1 [Compound 87, [4-(3-Diethylamino-propoxy)-phenyl]-(3-indan-5-yl-3H-[1,2,3]triazolo[4,5-d]pyrimidin-5-yl)-amine] | 99.5% | 81.5% |
| CCN(CC)CCNC(=O)c1ccc(-n2nnc3cnc(Nc4ccc(N5CCN(Cc6ccccc6)CC5)cc4)nc32)cc1 [Compound 53, 4-{5-[4-(4-Benzyl-piperazin-1-yl)-phenylamino]-[1,2,3]triazolo[4,5-d]pyrimidin-3-yl}-N-(2-diethylamino-ethyl)-benzamide] | 43.7% | 60.5% |
| CN(Cc1ccccc1Nc1ncc2nnn(-c3ccccc3CN(C)C3CCCCC3)c2n1)C1CCCCC1 [Compound 21, {2-[(Cyclohexyl-methyl-amino)-methyl]-phenyl}-(3-{2-[(cyclohexyl-methyl-amino)-methyl]-phenyl}-3H-[1,2,3]triazolo[4,5-d]pyrimidin-5-yl)-amine] | 23.3% | 19% |
